Source: US9808419B2, “Medicinal treatment of dermal infectious disorders with norketotifen” (priority 2012, dated 2017)
Where two headings read alike, the source gives them in different places. Marks after values point to notes of the source that are not given here.

Tests used:
[1] = test system: Staphylococcus aureus; assay: Antimicrobial MIC test; format: cell-based; conditions: MRSA or non-resistant S. aureus; 36° C. and 24 hours
Source text: (§1) Several studies have been performed to evaluate possible antimicrobial activities of norketotifen. Shown here are the results from a standard microbiological test, where the results are expressed as MIC (Minimal Inhibitory Concentration) of the test article against selected exemplary dermal bacteria (such as for example Staphylococcus aureus) and dermal fungi (such as for example Malassezia sp) that are commonly found in human with dermal diseases. […] All the MIC-tests shown in Table 10 were performed in duplicates, using 10 concentrations of the test articles. […] The test culture tubes/plates were incubated in temperatures and durations appropriate for each microorganism (S. aureus: 36° C. and 24 hours; M. globosa: 30° C. and 24 hours).

[2] = test system: Malassezia globosa; assay: Antimicrobial MIC test; format: cell-based; conditions: 30° C. and 24 hours
Source text: as §1

[3] = test system: mice; conditions: for Sedated animals: mice, 60 min before physostigmine
Experimental: Mice administered a sedating drug prior to the physostigmine injection are protected from the stress and survive. In the present study, test compounds were given orally 60 minutes prior to physostigmine injection. The number of surviving (sedated) mice was counted 30 minutes after injection of the physostigmine dose.

[4] = test system: histamine-induced pruritus; assay: Histamine-induced pruritus in mice, oral administration; format: in vivo
Experimental: Antipruritic effects were tested in vivo in CD-1 female mice aged 10-12 weeks. The hair was clipped over the rostral part of the back at the interscapular level of the mice one day before dosing. Before testing, the mice were placed in individual clear plastic cages for at least one hour for acclimation. After fasting for 1.5 hours, the animals were dosed orally with the test article, dissolved in a vehicle consisting of 1% methylcellulose/water, 10 mL/kg body-weight. Sixty minutes after oral dosing, an intradermal injection of histamine (300 nmol in 20 μl phosphate buffered saline (PBS), pH 7.4) was administered into the clipped area. Immediately after the histamine injection, the bouts of scratches were counted for 40 minutes. Scratching induced by the histamine vehicle PBS served as control.
Norketotifen was tested in escalating doses. In addition, a supramaximal dose of 100 mg/kg of norketotifen was tested. The reference compounds JNJ7777120, desloratadine and oclacitinib were dosed orally at 20 mg/kg. The vehicle for the reference compound JNJ7777120 was 20% hydroxypropyl-β-cyclodextrin in water. […]. The numbers of pruritic bouts for Norketotifen, DES and OCLA are expressed in percent of the same Vehicle (100% corresponds to 92 pruritic bouts). […] Scratches induced by the histamine-free vehicle PBS (not shown in Table 5) served as control (6±3 bouts of scratching; N=8)
This test used histamine to induce pruritus. […] The histamine inhibitors are “inverse agonists” at both receptor types.

[5] = Acute toxicity in rats, Up-and-Down Procedure; conditions: both sexes, Sprague-Dawley, in vivo, rat, hydrogen fumarate salts, read-out: Acute toxicity (estimated LD50)
Experimental: Acute toxicological studies were performed in rats (Sprague-Dawley; M and F; 200-250 grams). The animal-sparing Up-and-Down Procedure, recommended by FDA and OECD, was used. Both oral and intravenous toxicity tests were performed.
Both compounds were administered as hydrogen fumarate salts.

[6] = Solubility in non-aqueous topical formulation solvents; format: physicochemical
Experimental: The hydrophobic ointment was prepared by dissolving norketotifen in propylene glycol. […] Next, glyceryl stearate, cetyl alcohol, and white petrolatum were added to a suitable container and heated to 65-70° C. This heating step melts the surfactants and the petrolatum. Next, norketotifen solution was slowly added and the composition mixed until the solvent was dispersed. Finally, the composition was cooled with mixing to allow the ointment to thicken. If needed, acidity can be adjusted by adding an acid solution or a base solution to obtain the preferred acidity. If needed, viscosity can be adjusted with a viscosity-modifying agent to obtain the preferred viscosity.

[7] = test system: human leukocytes (buffy coat); assay: Inhibition of A23187-stimulated histamine release from human leukocytes; format: cell-based
Experimental: In these studies, histamine was the marker compound for inflammatory mediators that are released from mast cells and other pro-inflammatory cells in patients with atopic inflammatory diseases. The inhibition of stimulated histamine release from human leukocytes (buffy coat) by test articles was studied. Leukocytes were obtained from healthy volunteers and histamine release was induced by incubation (20 min/37° C.) with the calcium ionophore A23187 (5 μM) in the presence or absence of a test article. Histamine was analyzed by enzyme-immune assays, using commercially available kits and a microplate reader (MRX, Dynatech). The test articles were evaluated, in duplicate, at five concentrations.

[8] = test system: Helicobacter pylori; assay: Antimicrobial test; format: cell-based
[9] = test system: histamine wheal response; assay: Histamine-induced wheal (Evans blue) in rats, oral pretreatment; format: in vivo; conditions: rat; for Saline wheal area: histamine vehicle injection
Experimental: Male rats (150-200 g) were fasted overnight and twelve hours after dorsal depilation, the animals were orally pretreated with the test compound(s). Four dorsal test areas were marked with permanent ink, carefully avoiding the area closest to the spine. […] Two intradermal injections of the vehicle for the histamine solution were also performed. […] Twenty minutes were allowed for the wheal response to fully develop, whereupon the animals were euthanized and the dorsal skin with the intradermal wheals were deflected. The blue spotted areas were measured in square millimeters and the duplicate wheal areas were averaged. […] The inhibition was calculated in percent difference from said baseline values.

[10] = test system: croton oil inflammatory response; assay: Modified croton oil ear inflammation in mice, topical cream; format: in vivo; conditions: cream containing 1.0 percent (w/w)
Experimental: In order to investigate the effects of topical administration of the test compounds in dermal inflammation, a modified croton oil model was used. […] The cream was then removed and a solution of 1% croton oil in 20 μl acetone was applied to both ears. […] Cream was wiped from the ears and ears were removed and weighed. […] All results represent mean ear weights (±S.E.M.) from 8 ears.

[11] = test system: Malassezia pachydermatis; assay: Antimicrobial test; format: cell-based
Source text: as §1

[12] = test system: Candida albicans; assay: Antimicrobial test; format: cell-based
Source text: as §1

[13] = test system: histamine-induced pruritus; assay: Histamine-induced pruritus in mice, topical cream; format: in vivo; conditions: single topical application of 1.0 percent cream
Experimental: Antipruritic effects were tested in vivo in CD-1 female mice aged 10-12 weeks, according to methods known in the art. The hair was clipped over the rostral part of the back at the interscapular level of the mice one day before dosing. Before testing, the mice were placed in individual clear plastic cages for at least one hour for acclimation. […] Lanolin was weighed and liquified by submerging the vessel containing lanolin in hot water. While the lanolin was liquid, it was rapidly nixed (by vortexing) with the 2.5% norketotifen solution in ethanol, resulting in a 1.0 percent solution. […] A cream containing 60% lanolin/40% ethanol served as control.

[14] = Formation of norketotifen by hepatic demethylation of ketotifen; conditions: human patients, after an oral dose of one milligram ketotifen; calculated
[15] = oral 20 mg/kg, vehicle 1% methylcellulose/water

Which “S. aureus MIC” value [1] does the source give for `O=C(O)/C=C/C(=O)O.O=C1Cc2ccccc2C(=C2CCNCC2)c2ccsc21` [R-norketotifen HF] here?
Its value is 1000 µg/mL.

What about the “M. globosa MIC” value [2] of the same compound?
The value was 500 µg/mL.

With `O=C1Cc2ccccc2C(=C2CCNCC2)c2ccsc21` [S-NORKETOTIFEN] as the compound, how does the Sedated animals ([3]; oral 100 mg/kg, 100 mg/kg) read?
The Sedated animals was 0/10.

And the Sedated animals ([3]; oral 150 mg/kg, 150 mg/kg)?
Its Sedated animals is 0/10.

For `O=C(O)/C=C/C(=O)O.O=C1Cc2ccccc2C(=C2CCNCC2)c2ccsc21` [RS-norketotifen HF], which “S. aureus MIC” value [1] is on record?
The value was 500 µg/mL.

What about the “M. globosa MIC” value [2] of the same compound?
Its value is 250 µg/mL.

What does the source list for `CN(C)CCOC(c1ccccc1)c1ccccc1` [DIPHENHYDRAMINE]?
Sedated animals ([3]; oral 50 mg/kg): 5/10; Sedated animals ([3]; oral 100 mg/kg): 8/10

For `CCOC(=O)N1CCC(=C2c3ccc(Cl)cc3CCc3cccnc32)CC1` [LORATADINE], which Sedated animals ([3]; oral 150 mg/kg) is on record?
The Sedated animals was 1/10.

Which Sedated animals ([3]; oral 150 mg/kg) does the source give for `Clc1ccc2c(c1)CCc1cccnc1C2=C1CCNCC1` [DESLORATADINE, reference compound] here?
The Sedated animals was 0/10.

What about the “Bouts as % of Vehicle Controls” value ([4]; oral 20 mg/kg, 100% = 92 bouts) of the same compound?
Its value is 122%.

What about the “Bouts/40 min Mean ± SEM” value [4, 15] of the same compound?
Its value is 112.0 ± 14.5.

For `O=C1Cc2ccccc2C(=C2CCNCC2)c2ccsc21` [R-NORKETOTIFEN], which Sedated animals ([3]; oral 100 mg/kg, 100 mg/kg) is on record?
The Sedated animals was 3/10.

What about the Sedated animals ([3]; oral 150 mg/kg, 150 mg/kg) of the same compound?
Its Sedated animals is 3/10.

Which results are given for `O=C(O)/C=C/C(=O)O.O=C1Cc2ccccc2C(=C2CCNCC2)c2ccsc21` [S-norketotifen HF]?
S. aureus MIC [1]: 500 µg/mL; M. globosa MIC [2]: 250 µg/mL

With `CC(C)(C)c1ccc(C(O)CCCN2CCC(C(O)(c3ccccc3)c3ccccc3)CC2)cc1` (stereo not drawn) [TERFENADINE] as the compound, how does the Sedated animals ([3]; oral 150 mg/kg) read?
Its Sedated animals is 0/10.

With `COc1ccc(CN(CCN(C)C)c2ccccn2)cc1` [PYRILAMINE] as the compound, how does the Sedated animals ([3]; oral 100 mg/kg) read?
Its Sedated animals is 8/10.

With `CNS(=O)(=O)C[C@H]1CC[C@H](N(C)c2ncnc3[nH]ccc23)CC1` [Oclacitinib, reference compound] as the compound, how does the “Bouts as % of Vehicle Controls” value ([4]; oral 20 mg/kg, 100% = 92 bouts) read?
Its value is 55* %.

What about the “Bouts/40 min Mean ± SEM” value [4, 15] of the same compound?
Its value is 50.9 ± 18.7.

Which Sedated animals ([3]; oral 25 mg/kg) does the source give for `CN1CCC(=C2c3ccccc3CC(=O)c3sccc32)CC1` [Ketotifen, 4-(1-methyl-4-piperidyline)-4H-benzo(4,5)-cyclohepta-(1,2-b) thiophene-10-one] here?
The Sedated animals was 5/10.

And the Sedated animals ([3]; oral 50 mg/kg)?
Its Sedated animals is 8/10.

And the Sedated animals ([3]; oral 100 mg/kg)?
The Sedated animals was 10/10.

And the LD50 ([5]; intravenous)?
Its LD50 is 5 to 10 mg/kg.

And the LD50 ([5]; oral)?
Its LD50 is less than 300 mg/kg.

For `O=C1Cc2ccccc2C(=C2CCNCC2)c2ccsc21` (racemic) [Norketotifen], which Solubility ([6]; formulation G1009, mixture of two polyethylene glycols) is on record?
Its Solubility is “about 1.0%”.

What about the Solubility ([6]; in propylene glycol) of the same compound?
The Solubility was “about 1.0%”.

And the “Potency as inhibitor of histamine release relative to ketotifen” value [7]?
Its value is “approximately 10 times”.

What about the “Antimicrobial activity” value [8] of the same compound?
Its value is “potent antimicrobial activities”.

What about the Saline wheal area ([9]; oral 1.0 mg/kg) of the same compound?
Its Saline wheal area is 22 ± 1 mm^2.

What about the Histamine wheal area ([9]; oral 10 mg/kg, 60 min before intradermal histamine) of the same compound?
Its Histamine wheal area is 39 ± 2 mm^2.

What about the Saline wheal area ([9]; oral 10 mg/kg) of the same compound?
Its Saline wheal area is 22 ± 1 mm^2.

And the Saline wheal area ([9]; oral 50 mg/kg)?
The Saline wheal area was 12 ± 1 mm^2.

And the “Inhibition of croton oil inflammation” value [10]?
The value was “completely inhibited”.

And the “Antimicrobial activity” value [11]?
The value was “potent antimicrobial activities”.

And the “Antimicrobial activity” value [12]?
The value was “potent antimicrobial activities”.

And the Sedated animals ([3]; oral 83 mg/kg)?
Its Sedated animals is 3/10.

And the Sedated animals ([3]; oral 100 mg/kg)?
Its Sedated animals is 3/10.

What about the Sedated animals ([3]; oral 150 mg/kg) of the same compound?
The Sedated animals was 3/10.

What about the Sedated animals ([3]; oral 180 mg/kg) of the same compound?
Its Sedated animals is 6/10.

What about the “Sedative activity in mice” value ([3]; mouse, in vivo) of the same compound?
Its value is “expressed sedative activity”.

And the “Bouts/40 min Mean ± SEM” value ([4]; oral 1 mg/kg)?
Its value is 84.7 ± 11.6.

What about the “Bouts as % of Vehicle Controls” value ([4]; oral 1 mg/kg, 100% = 92 bouts) of the same compound?
The value was 92%.

And the “Bouts/40 min Mean ± SEM” value ([4]; oral 3 mg/kg)?
The value was 34.1 ± 9.6.

What about the “Bouts as % of Vehicle Controls” value ([4]; oral 3 mg/kg, 100% = 92 bouts) of the same compound?
The value was 37** %.

What about the “Bouts/40 min Mean ± SEM” value ([4]; oral 10 mg/kg) of the same compound?
The value was 17.8 ± 3.1.

And the “Bouts as % of Vehicle Controls” value ([4]; oral 10 mg/kg, 100% = 92 bouts)?
The value was 19** %.

What about the “Bouts/40 min Mean ± SEM” value ([4]; oral 100 mg/kg) of the same compound?
Its value is 8.3 ± 2.8.

What about the “Bouts as % of Vehicle Controls” value ([4]; oral 100 mg/kg, 100% = 92 bouts) of the same compound?
Its value is 9*** %.

And the “Inhibition of histamine-induced pruritus” value ([4]; oral supramaximal dose 100 mg/kg)?
The value was “complete inhibition”.

And the “Reduction of histamine-induced pruritus versus Vehicle Control” value [13]?
Its value is 58%.

What about the LD50 ([5]; intravenous) of the same compound?
The LD50 was 10 to 15 mg/kg.

What about the LD50 ([5]; oral) of the same compound?
Its LD50 is 1500 to 2000 mg/kg.

And the “Norketotifen formed in the liver” value [14]?
Its value is “up to 0.5 mg”.

With `OCCOCCN1CCN(C(c2ccccc2)c2ccc(Cl)cc2)CC1` (stereo not drawn) [HYDROXYZINE] as the compound, how does the Sedated animals ([3]; oral 100 mg/kg) read?
The Sedated animals was 9/10.

Which results are given for `CN1CCN(C(=O)c2cc3cc(Cl)ccc3[nH]2)CC1` [J&J7777120, reference compound]?
Bouts/40 min Mean ± SEM ([4]; oral 20 mg/kg, vehicle 20% hydroxypropyl-β-cyclodextrin): 63.6 ± 11.7; Bouts as % of Vehicle Controls ([4]; oral 20 mg/kg, versus vehicle for JNJ7777120 (112 bouts)): 57* %
